Laboratory results published in US20260200920A1, “SUBSTITUTED AMINOPYRIDINE COMPOUNDS FOR USE AS AKT1 INHIBITORS” (Atavistik Bio, Inc., priority 2023, published 2026).
pIC50: −log10 of the molar value.

What was measured:
[1] = target: T1, human recombinant kinase full-length AKT1 E17K (Homo sapiens, UniProt P31749, E17K); experiment: AKT1 E17K kinase assay (TR-FRET, Lance); assay type: biochemical; settings: 0.6 nM AKT1 E17K, 50 nM Ulight-CREBtide, either 50 μM ATP or 2 mM ATP, 60 min at RT
T1 construct: Purified human recombinant kinase full-length AKT1 E17K was expressed in insect cells; made in house; host or cells: insect cells
Experimental: AKT1 E17K kinase assay: Inhibitory effects of compounds on AKT1 E17K were undertaken in a 10-pt dose response kinase activity assay measuring phospho-peptide product formation based on TR-FRET signal as described in the following paragraph.
(§1) Purified human recombinant kinase full-length AKT1 E17K was expressed in insect cells and activated in vitro by PDPK1. Ulight™-CREBtide (PerkinElmer, catalog number TRF0107) was used as the peptide substrate. The reaction buffer consisted of 50 mM HEPES pH 7.5, 10 mM MgCl2, 0.01% Triton X-100, 0.01% BSA, 2 mM DTT, 0.6 nM AKT1 E17K, 50 nM Ulight™-CREBtide and either 50 μM ATP or 2 mM ATP. The compound solution was prepared as 10 mM DMSO stock. For the assay, a 1.3 serial dilution 10-pt dose response of test compounds, in duplicate, for each concentration were dispensed into a 384-well plate (Corning, catalog number 4513). Final DMSO concentration in the assay was 1%. The enzyme mixture (5 μL, 1.2 nM) were added and the mixture was incubated for 15 min at RT prior to the start of the kinase reaction by the addition of 5 μL substrate mixture (100 nM Ulight™-CREBtide). The reaction was stopped after 60 min of incubation at RT by the addition of 10 μL of Detection Mix (PerkinElmer, #CR97-100) consisting of Europium-anti-phospho-CREB (Ser133) (Perkin Elmer, catalog number TRF0200). Incubation with the detection mix for a further 60 min allowed binding of antibody to the phospho-Ulight™ CREBtide. The fluorescence emissions at 620 nm and 665 nm after excitation at 350 nm was measured using Envision reader. The ratio of the emissions at 665 nm and at 620 nm provided the measure for the amount of phosphorylated CREBtide product of AKT1 E17K kinase activity. To determine the IC50 values, the data was normalized (enzyme reaction without inhibitor=0% inhibition, all other assay components but no enzyme=100% inhibition) and IC50 values were calculated by a 4-parameter fit using an in-house developed protocol.
Table 9 assigns each compound a code for potency in the AKT1 E 17K kinase assay: A, B, or C. According to the code, A represents an IC50 value <500 nM; B represents an IC50 value from ≥500 nM to <2000 nM; and C represents an IC50 value ≥2000 nM.

[2] = target: T2, human recombinant kinase full-length wildtype AKT1 (Homo sapiens, UniProt P31749); experiment: AKT1 kinase assay (wildtype, TR-FRET, Lance); assay type: biochemical; settings: 0.6 nM wildtype AKT1, 50 nM Ulight-CREBtide, either 50 μM ATP or 2 mM ATP, 60 min at RT
T2 construct: Purified human recombinant kinase full-length wildtype AKT1 was expressed in insect cells; made in house; host or cells: insect cells
Experimental: AKT1 kinase assay: Inhibitory effects of compounds on wildtype AKT1 were undertaken in a 10-pt dose response kinase activity assay measuring phospho-peptide product formation based on TR-FRET signal as described in the following paragraph.
as §1, with “full-length wildtype” for “full-length”, “AKT1” for “AKT1 E17K”, “AKT1,50” for “AKT1 E17K, 50”, “1:3” for “1.3”
The symbol +++ represents an IC50 value <20 μM; the symbol ++ represents an IC50 value from ≥20 μM to 80 μM.

T1 sequence (P31749 whole entry E17K): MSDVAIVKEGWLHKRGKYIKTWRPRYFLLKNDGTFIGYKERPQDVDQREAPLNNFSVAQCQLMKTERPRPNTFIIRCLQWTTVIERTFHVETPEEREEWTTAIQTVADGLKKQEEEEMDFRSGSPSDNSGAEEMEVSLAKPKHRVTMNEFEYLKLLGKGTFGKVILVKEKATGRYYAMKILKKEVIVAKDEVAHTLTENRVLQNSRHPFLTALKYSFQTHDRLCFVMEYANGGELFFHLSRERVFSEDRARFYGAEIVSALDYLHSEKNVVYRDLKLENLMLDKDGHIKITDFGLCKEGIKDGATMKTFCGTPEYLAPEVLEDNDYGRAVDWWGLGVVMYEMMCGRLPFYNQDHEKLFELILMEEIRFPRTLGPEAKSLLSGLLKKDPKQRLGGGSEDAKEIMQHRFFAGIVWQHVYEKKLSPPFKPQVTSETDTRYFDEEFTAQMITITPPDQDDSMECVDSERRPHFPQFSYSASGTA
T2 sequence (P31749 whole entry): as the sequence (P31749 whole entry E17K) above, with K17E counted along it

Row | SMILES | pIC50 [1] | pIC50 [2]
1 | CC(C)(C(=O)O)[C@H]1CCN(Cc2ccc(-n3c(-c4cccnc4N)nc4ccc(-c5ccccc5)nc43)cc2)C1 (stereo in doubt) [Compound I-175] | 5.70 to 6.30 | > 4.70
2 | Nc1ncccc1-c1nc2ccc(-c3ccccc3)nc2n1-c1ccc(NC(=O)C2CCC(C(=O)O)CC2)cc1F (stereo not shown) [Compound I-5, 4-((4-(2-(2-aminopyridin-3-yl)-5-phenyl-3H-imidazo[4,5-b]pyridin-3-yl)-3-fluorophenyl)carbamoyl)cyclohexane-1-carboxylic acid] | 5.70 to 6.30 | > 4.70
3 | Nc1ncccc1-c1nc2ccc(-c3ccccc3)nc2n1-c1ccc(NC(=O)[C@H]2CC[C@H](C(=O)O)CC2)c(F)c1 [Compound I-6, (1r,4r)-4-((4-(2-(2-aminopyridin-3-yl)-5-phenyl-3H-imidazo[4,5-b]pyridin-3-yl)-2-fluorophenyl)carbamoyl)cyclohexane-1-carboxylic acid] | 5.70 to 6.30 | > 4.70
4 | Nc1ncccc1-c1nc2ccc(-c3ccccc3)nc2n1-c1ccc(NC(=O)C23CC(C(=O)O)(C2)C3)nc1 [Compound I-7, 3-((5-(2-(2-aminopyridin-3-yl)-5-phenyl-3H-imidazo[4,5-b]pyridin-3-yl)pyridin-2-yl)carbamoyl)bicyclo[1.1.1]pentane-1-carboxylic acid] | ≤ 5.70 | 4.10 to 4.70
5 | Nc1ncccc1-c1nc2ccc(-c3ccccc3)nc2n1-c1ccc(NC(=O)C2CCC(C(=O)O)C2)nc1 (stereo not shown) [Compound I-8, 3-((5-(2-(2-aminopyridin-3-yl)-5-phenyl-3H-imidazo[4,5-b]pyridin-3-yl)pyridin-2-yl)carbamoyl)cyclopentane-1-carboxylic acid] | 5.70 to 6.30 | > 4.70
6 | Nc1ncccc1-c1nc2ccc(-c3ccccc3)nc2n1-c1ccc(NC(=O)C23CCC(C(=O)O)(C2)C3)nc1 [Compound I-9, 4-((5-(2-(2-aminopyridin-3-yl)-5-phenyl-3H-imidazo[4,5-b]pyridin-3-yl)pyridin-2-yl)carbamoyl)bicyclo[2.1.1]hexane-1-carboxylic acid] | 5.70 to 6.30 | > 4.70
7 | Nc1ncccc1-c1nc2ccc(-c3ccccc3)nc2n1-c1ccc(NC(=O)[C@H]2CC[C@H](C(=O)O)CC2)nc1 [Compound I-10, (1r,4r)-4-((5-(2-(2-aminopyridin-3-yl)-5-phenyl-3H-imidazo[4,5-b]pyridin-3-yl)pyridin-2-yl)carbamoyl)cyclohexane-1-carboxylic acid] | > 6.30 | > 4.70
8 | Nc1ncccc1-c1nc2ccc(-c3ccccc3)nc2n1-c1ccc(NC(=O)C2CCCC(C(=O)O)C2)nc1 (stereo not shown) [Compound I-11, 3-((5-(2-(2-aminopyridin-3-yl)-5-phenyl-3H-imidazo[4,5-b]pyridin-3-yl)pyridin-2-yl)carbamoyl)cyclohexane-1-carboxylic acid] | > 6.30 | > 4.70
9 | Nc1ncccc1-c1nc2ccc(-c3ccccc3)nc2n1-c1ccc(NCC2CCC(C(=O)O)CC2)nc1 (stereo not shown) [Compound I-12, 4-(((5-(2-(2-aminopyridin-3-yl)-5-phenyl-3H-imidazo[4,5-b]pyridin-3-yl)pyridin-2-yl)amino)methyl)cyclohexane-1-carboxylic acid] | > 6.30 | > 4.70
10 | Nc1ncccc1-c1nc2ccc(-c3ccccc3)nc2n1-c1ccc(NC2CCC(C(=O)O)C2)nc1 (stereo not shown) [Compound I-13, 3-((5-(2-(2-aminopyridin-3-yl)-5-phenyl-3H-imidazo[4,5-b]pyridin-3-yl)pyridin-2-yl)amino)cyclopentane-1-carboxylic acid] | ≤ 5.70 | > 4.70
11 | Nc1ncccc1-c1nc2ccc(-c3ccccc3)nc2n1-c1ccc(C(=O)N[C@H]2CC[C@@H](C(=O)O)CC2)nc1 [Compound I-18, (1s,4s)-4-(5-(2-(2-aminopyridin-3-yl)-5-phenyl-3H-imidazo[4,5-b]pyridin-3-yl)picolinamido)cyclohexane-1-carboxylic acid] | ≤ 5.70 | > 4.70
12 | Nc1ncccc1-c1nc2ccc(-c3ccccc3)nc2n1-c1ccc(C(=O)N[C@H]2CC[C@H](C(=O)O)CC2)nc1 [Compound I-19, (1r,4r)-4-(5-(2-(2-aminopyridin-3-yl)-5-phenyl-3H-imidazo[4,5-b]pyridin-3-yl)picolinamido)cyclohexane-1-carboxylic acid] | ≤ 5.70 | > 4.70

The remaining lines, values ahead:

Row | pIC50 [1] | pIC50 [2] | SMILES
13 | 5.70 to 6.30 | > 4.70 | Nc1ncccc1-c1nc2ccc(-c3ccccc3)nc2n1-c1ccc(C2CCN(C[C@H]3CCC[C@@H](C(=O)O)C3)CC2)cc1 (stereo in doubt) [Compound I-191]
14 | 5.70 to 6.30 | > 4.70 | Nc1ncccc1-c1nc2ccc(-c3ccccc3)nc2n1-c1ccc(C2CCN(C[C@@H]3CCC[C@H](C(=O)O)C3)CC2)cc1 (stereo in doubt) [Compound I-192]
15 | > 6.30 | > 4.70 | Nc1ncccc1-c1nc2ccc(-c3ccccc3)nc2n1-c1ccc(NC(=O)C2CCC(C(=O)O)C2)cc1 (stereo not shown) [Compound I-1, 3-((4-(2-(2-aminopyridin-3-yl)-5-phenyl-3H-imidazo[4,5-b]pyridin-3-yl)phenyl)carbamoyl)cyclopentane-1-carboxylic acid]
16 | > 6.30 | > 4.70 | Nc1ncccc1-c1nc2ccc(-c3ccccc3)nc2n1-c1ccc(NC(=O)[C@H]2CC[C@H](C(=O)O)CC2)cc1 [Compound I-2]
17 | > 6.30 | > 4.70 | Nc1ncccc1-c1nc2ccc(-c3ccccc3)nc2n1-c1ccc(NC(=O)[C@H]2CC[C@@H](C(=O)O)CC2)cc1 [Compound I-3, cis-4-[[4-[2-(2-amino-3-pyridyl)-5-phenyl-imidazo[4,5-b]pyridin-3-yl]phenyl]carbamoyl]cyclohexanecarboxylic acid]
18 | > 6.30 | > 4.70 | Nc1ncccc1-c1nc2ccc(-c3ccccc3)nc2n1-c1ccc(NC(=O)C2CCCC(C(=O)O)C2)cc1 (stereo not shown) [Compound I-4, 3-[[4-[2-(2-amino-3-pyridyl)-5-phenyl-imidazo[4,5-b]pyridin-3-yl]phenyl]carbamoyl]cyclohexanecarboxylic acid]
19 | > 6.30 | > 4.70 | Nc1ncccc1-c1nc2ccc(-c3ccccc3)nc2n1-c1ccc(C(=O)N[C@H]2CC[C@H](C(=O)O)CC2)cc1 [Compound I-16, (1r,4r)-4-(4-(2-(2-aminopyridin-3-yl)-5-phenyl-3H-imidazo[4,5-b]pyridin-3-yl)benzamido)cyclohexane-1-carboxylic acid]
20 | 5.70 to 6.30 | > 4.70 | Nc1ncccc1-c1nc2ccc(-c3ccccc3)nc2n1-c1ccc(C(=O)N[C@H]2CC[C@@H](C(=O)O)CC2)cc1 [Compound I-17, (1s,4s)-4-(4-(2-(2-aminopyridin-3-yl)-5-phenyl-3H-imidazo[4,5-b]pyridin-3-yl)benzamido)cyclohexane-1-carboxylic acid]
